ChEMBL document CHEMBL5303304, “EUbOPEN Chemogenomics Library - IncuCyte” (2023)
Where “and” joins values, the source holds several entries; their conditions need not be identical. Equal values may be shown once.

Assays:
Format in all cases: toxicity, cell-based
[1] = system: U2OS; assay: Incucyte cell viability with U2OS; settings: human, 10 µM, compound concentration 10 uM
[2] = system: HEK-293T; assay: Incucyte cell viability with HEK293T; settings: human, 10 µM, compound concentration 10 uM
[3] = system: Fibroblast; assay: Incucyte cell viability with human fibroblast; settings: 10 µM, compound concentration 10 uM
Also: unitless GR value; below 1 slowed growth and below 0 cell loss.

Compound	Growth Rate ([1]; 6 h, replicate number 2)	Growth Rate ([1]; 12 h, replicate number 2)	Growth Rate ([2]; 18 h, replicate number 1)	Growth Rate ([2]; 18 h, replicate number 2)	Growth Rate ([2]; 24 h, replicate number 1)	Growth Rate ([2]; 24 h, replicate number 2)	Growth Rate ([3]; 6 h, replicate number 1)	Growth Rate ([3]; 6 h, replicate number 2)	Growth Rate ([3]; 12 h, replicate number 1)	Growth Rate ([3]; 12 h, replicate number 2)	Growth Rate ([3]; 18 h, replicate number 2)	Growth Rate ([3]; 24 h, replicate number 2)	Growth Rate ([1]; 24 h, replicate number 2)	Growth Rate ([3]; 18 h, replicate number 1)	Growth Rate ([3]; 24 h, replicate number 1)	Growth Rate ([1]; 6 h, replicate number 1)	Growth Rate ([1]; 18 h, replicate number 1)	Growth Rate ([1]; 24 h, replicate number 1)	Growth Rate ([3]; 0 h, replicate number 2)	also measured
Cl.O=C(c1ccc(-c2ccc(Cl)cc2)o1)N(Cc1ccccn1)c1ccc(N2CCNCC2)cc1	0.57	0.87	0.76	0.43	0.48	0.25	-0.62	-1	-1	-0.6	-0.43	-0.32								Growth Rate ([1]; 0 h, replicate number 2): -0.97; Growth Rate ([2]; 12 h, replicate number 2): 0.52
CN(C)Cc1cccc(NC(=C2C(=O)Nc3cc(C(=O)N(C)C)ccc32)c2ccccc2)c1	0.99	0.73				0.95	0.08		0.68				0.8	0.68	0.47					Growth Rate ([1]; 18 h, replicate number 2): 0.82
O=C(CCSCc1ccco1)NNC(=O)N1Cc2ccccc2Oc2ccc(Cl)cc21		0.92	0.93		0.96		0.64	-0.43	0.82	0.45	0.53	0.72	0.92	0.92	0.8	0.95				Growth Rate ([3]; 0 h, replicate number 1): -1
CN(c1ccc(C(F)(F)F)cc1)S(=O)(=O)c1ccc(C(=O)Nc2nc(-c3ccccn3)cs2)cc1	0.76	0.65		0.84	0.82	0.76						0.82	1		0.92		0.94			Growth Rate ([1]; 0 h, replicate number 1): -1
COc1cc(-c2cc3ncccc3c(O[C@H](C)[C@H]3CNC(=O)C3)n2)cc(OC)c1OC.Cl				0.97		0.86	0.62		0.89	0.61 and 0.94	0.86		0.94	0.88			0.92	0.78	-0.01	Growth Rate ([1]; 12 h, replicate number 1): 0.79; Growth Rate ([3]; 0 h, replicate number 1): -1
COc1cc(Oc2nc(-c3ccc(NC(=O)C4CCOC4)cc3)nn3c(C)nc(C)c23)cc(OC)c1OC (stereo unspecified)		0.94			0.96					0.75						0.98		0.87	0.03	
COc1cc2nc(C)nc(NC3(c4ccccc4)CC3)c2cc1OC		0.97	0.87		0.93		0.99	0.66	0.99	0.7						0.52	0.94	0.86	0.11	Growth Rate ([1]; 12 h, replicate number 1): 0.94
COc1ccc(S(=O)(=O)N2CCOCC2)cc1Nc1ccc2c(n1)N(C1CCN(C)CC1)[C@H](C)C(=O)N2C		0.86	0.97		0.66	0.62	0.47	-0.45	0.73	0.26	0.48	0.41	0.72	0.88	0.86		0.83	0.45	0.55	Growth Rate ([1]; 0 h, replicate number 2): 0.58; Growth Rate ([1]; 18 h, replicate number 2): 0.79
